Data taken from patent publication US8486951B2 (Deciphera Pharmaceuticals, LLC, priority 2008, dated 2013).
Like-named read-outs stand apart in the source and are kept apart here.

Tests used:
[1] = molecular target: T1, PDGFRα kinase (Homo sapiens, UniProt P16234); assay: PDGFRα Kinase Assay; assay type: biochemical; details: read-out: PDGFRa Enzyme Assay
T1 construct: purchased Invitrogen
Description: (§1) Activity of PDGFRα kinase was determined by following the production of ADP from the kinase reaction through coupling with the pyruvate kinase/lactate dehydrogenase system. In this assay, the oxidation of NADH (thus the decrease at A340 nm) was continuously monitored spectrophometrically. The reaction mixture (100 μl) contained PDGFRα (Invitrogen, 10 nM), polyE4Y (1 mg/ml), MgCl2 (10 mM), pyruvate kinase (4 units), lactate dehydrogenase (0.7 units), phosphoenol pyruvate (1 mM) and NADH (0.28 mM) and ATP (500 μM) in a 90 mM Tris buffer containing 0.2% octyl-glucoside and 1% DMSO, pH 7.5. The inhibition reaction was started by mixing serial diluted test compound with the above reaction mixture. The absorption at 340 nm was monitored continuously for 4 hours at 30° C. on a Polarstar Optima or Synergy 2 plate reader. The reaction rate was calculated using the 2 to 3 h time frame. Percent inhibition was obtained by comparison of reaction rate with that of a control (i.e. with no test compound). IC50 values were calculated from a series of percent inhibition values determined at a range of inhibitor concentrations using software routines as implemented in the GraphPad Prism software package.

[2] = molecular target: KDR kinase (Seq ID No. 3) (Homo sapiens, UniProt P35968, DEL940-989/E990V); assay: KDR Kinase Assay (assays K1, K2, K3); assay type: biochemical; details: assay variant K1, K2 or K3 not stated; read-out: KDR Enzyme Assay
[3] = molecular target: T2, phospho-VEGF R2 (Homo sapiens, UniProt P35968); assay: HUVEC VEGF/KDR ELISA (phospho-VEGF R2 after VEGF stimulation); assay type: cell-based; details: 4 h compound, 100 ng/mL VEGF 5 min, read-out: HUVEC pKDR
T2 construct: host or cells: HUVEC
Description: HUVEC (Human umbilical vein endothelial cell) cells were obtained from Lonza (Lonza, Walkersville, Md.). Briefly, cells were grown in EGM-2 (Lonza, Walkersville, Md.) at 37 degrees Celsius, 5% CO2, 95% humidity. Cells were allowed to expand until reaching 90-95% saturation at which point they were subcultured or harvested for assay use. For assay use, cells were harvested and grown in EGM-2 medium supplemented with 2% FBS (Lonza, Walkersville, Md.).
Twenty-five thousand cells were added per well in a 96-well black clear bottom plate (Corning, Corning, N.Y.). Cells were then incubated overnight at 37 degrees Celsius, 5% CO2, 95% humidity. A serial dilution of test compound was dispensed into another 96-well black clear bottom plate (Corning, Corning, N.Y.) containing EBM-2 supplemented with 2% FBS. Compound was added to plates containing cells and incubated for 4 hours at 37 degrees Celsius, 5% CO2, 95% humidity. Cells were stimulated with 100 ng/mL VEGF (R&D Systems, Minneapolis, Minn.) for 5 minutes, then lysed. Cell lysates were used to detect phospho-VEGF R2 using DuoSet IC HUVEC VEGF/KDR ELISA (R&D Systems, Minneapolis, Minn.). Data was analyzed using Prism software (Graphpad, San Diego, Calif.) to calculate IC50's.

[4] = molecular target: T3, PDGFRβ (Homo sapiens, UniProt P09619); assay: PDGFRβ Kinase Assay; assay type: biochemical; details: read-out: PDGFRb Enzyme Assay
T3 construct: purchased Invitrogen

[5] = system: EBC-1 cells; assay: EBC-1 Cell Proliferation Assay (resazurin); assay type: cell-based; details: 67 h + 5 h resazurin, read-out: EBC1 Cell Proliferation
Description: EBC-1 cells (catalog #JCRB0820) were obtained from the Japan Health Science Research Resources Bank, Osaka, Japan. Briefly, cells were grown in DMEM supplemented with 10% characterized fetal bovine serum (Invitrogen, Carlsbad, Calif.) at 37 degrees Celsius, 5% CO2, 95% humidity. Cells were allowed to expand until reaching 70-95% confluency at which point they were subcultured or harvested for assay use.
EBC-1 Cell Proliferation Assay
(§2) A serial dilution of test compound was dispensed into a 96-well black clear bottom plate (Corning, Corning, N.Y.). For each cell line, five thousand cells were added per well in 200 μL complete growth medium. Plates were incubated for 67 hours at 37 degrees Celsius, 5% CO2, 95% humidity. […] Data was analyzed using Prism software (Graphpad, San Diego, Calif.) to calculate IC50 values.

[6] = molecular target: T4, c-KIT kinase (Seq. ID no. 1) (Homo sapiens, UniProt P10721); assay: c-KIT kinase Assay (ADP production, pyruvate kinase/lactate dehydrogenase coupled); assay type: biochemical; details: read-out: cKIT Enzyme Assay
T4 construct: purchased ProQinase
Description: In this assay, the oxidation of NADH (thus the decrease at A340 nm) was continuously monitored spectrophometrically. […] The absorption at 340 nm was monitored continuously for 0.5 hours at 30° C. on Polarstar Optima plate reader (BMG). The reaction rate was calculated using the 0 to 0.5 h time frame. Percent inhibition was obtained by comparison of reaction rate with that of a control (i.e. with no test compound). IC50 values were calculated from a series of percent inhibition values determined at a range of inhibitor concentrations using software routines as implemented in the GraphPad Prism software package.

[7] = molecular target: T5, FMS kinase (Homo sapiens, UniProt P07333); assay: FMS Kinase Assay; assay type: biochemical; details: read-out: FMS Enzyme Assay
T5 construct: purchased Invitrogen or Millipore
Description: as §1, with “In” for “Activity of PDGFRα kinase was determined by following the production of ADP from the kinase reaction through coupling with the pyruvate kinase/lactate dehydrogenase system. In”, “FMS (purchased from Invitrogen or Millipore, 6” for “PDGFRα (Invitrogen, 10”

[8] = molecular target: T6, c-MET kinase (Seq. ID no. 2) (Homo sapiens, UniProt P08581); assay: c-MET Kinase Assay (ADP production, pyruvate kinase/lactate dehydrogenase coupled); assay type: biochemical; details: read-out: cMET Enzyme Assay
T6 construct: purchased Invitrogen PV3143
Description: In this assay, the oxidation of NADH (thus the decrease at A340 nm) was continuously monitored spectrophometrically. […] Test compounds were incubated with C-Met (Seq. ID no. 2) and other reaction reagents at 22° C. for 0.5 h before ATP (100 μM) was added to start the reaction. The absorption at 340 nm was monitored continuously for 2 hours at 30° C. on Polarstar Optima plate reader (BMG). The reaction rate was calculated using the 1.0 to 2.0 h time frame. Percent inhibition was obtained by comparison of reaction rate with that of a control (i.e. with no test compound). IC50 values were calculated from a series of percent inhibition values determined at a range of inhibitor concentrations using software routines as implemented in the GraphPad Prism software package.

[9] = system: M-NFS-60 cells; assay: M-NFS-60 Cell Proliferation Assay (resazurin); assay type: cell-based; details: 67 h + 5 h resazurin
Description: Cells were allowed to expand until reaching saturation at which point they were subcultured or harvested for assay use.
M-NFS-60 Cell Proliferation Assay
as §2, with “384-well” for “96-well”, “Two thousand” for “For each cell line,”, “hundred” for “thousand”, “50” for “200”, “CO2, and” for “CO2,”

[10] = molecular target: T7, Mo-7e pKIT (Homo sapiens, UniProt P10721); assay: Mo-7e pKIT cellular assay; assay type: cell-based; details: Mo-7e cells
T7 construct: endogenous in cells; host or cells: Mo-7e

T5 sequence (P07333 20-972): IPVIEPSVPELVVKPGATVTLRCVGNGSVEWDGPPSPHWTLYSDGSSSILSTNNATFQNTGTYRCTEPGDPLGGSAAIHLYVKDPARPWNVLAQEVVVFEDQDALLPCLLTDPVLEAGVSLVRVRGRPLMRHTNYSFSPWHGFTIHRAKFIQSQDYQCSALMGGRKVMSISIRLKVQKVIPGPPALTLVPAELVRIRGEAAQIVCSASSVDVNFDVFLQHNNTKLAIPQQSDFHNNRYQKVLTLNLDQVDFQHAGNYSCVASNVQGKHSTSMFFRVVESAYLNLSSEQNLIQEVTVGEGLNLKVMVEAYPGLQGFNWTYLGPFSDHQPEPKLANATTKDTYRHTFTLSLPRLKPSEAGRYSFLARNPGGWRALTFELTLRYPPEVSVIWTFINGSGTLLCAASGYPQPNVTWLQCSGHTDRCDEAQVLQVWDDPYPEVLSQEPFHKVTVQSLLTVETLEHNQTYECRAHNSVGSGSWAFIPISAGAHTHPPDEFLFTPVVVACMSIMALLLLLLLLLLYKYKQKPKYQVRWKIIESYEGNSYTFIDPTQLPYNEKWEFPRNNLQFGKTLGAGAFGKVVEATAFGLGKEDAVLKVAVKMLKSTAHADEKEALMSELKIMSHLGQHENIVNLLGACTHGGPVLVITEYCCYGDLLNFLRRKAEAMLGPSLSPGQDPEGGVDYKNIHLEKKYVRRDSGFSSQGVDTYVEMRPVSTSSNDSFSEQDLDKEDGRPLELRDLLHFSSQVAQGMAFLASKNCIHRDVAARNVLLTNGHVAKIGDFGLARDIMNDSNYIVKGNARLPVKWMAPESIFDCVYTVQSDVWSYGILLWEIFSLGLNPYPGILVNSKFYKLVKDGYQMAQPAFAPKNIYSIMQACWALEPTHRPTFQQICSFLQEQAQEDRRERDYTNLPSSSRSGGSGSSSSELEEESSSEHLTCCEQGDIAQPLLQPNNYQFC
T3 sequence (P09619 33-1106): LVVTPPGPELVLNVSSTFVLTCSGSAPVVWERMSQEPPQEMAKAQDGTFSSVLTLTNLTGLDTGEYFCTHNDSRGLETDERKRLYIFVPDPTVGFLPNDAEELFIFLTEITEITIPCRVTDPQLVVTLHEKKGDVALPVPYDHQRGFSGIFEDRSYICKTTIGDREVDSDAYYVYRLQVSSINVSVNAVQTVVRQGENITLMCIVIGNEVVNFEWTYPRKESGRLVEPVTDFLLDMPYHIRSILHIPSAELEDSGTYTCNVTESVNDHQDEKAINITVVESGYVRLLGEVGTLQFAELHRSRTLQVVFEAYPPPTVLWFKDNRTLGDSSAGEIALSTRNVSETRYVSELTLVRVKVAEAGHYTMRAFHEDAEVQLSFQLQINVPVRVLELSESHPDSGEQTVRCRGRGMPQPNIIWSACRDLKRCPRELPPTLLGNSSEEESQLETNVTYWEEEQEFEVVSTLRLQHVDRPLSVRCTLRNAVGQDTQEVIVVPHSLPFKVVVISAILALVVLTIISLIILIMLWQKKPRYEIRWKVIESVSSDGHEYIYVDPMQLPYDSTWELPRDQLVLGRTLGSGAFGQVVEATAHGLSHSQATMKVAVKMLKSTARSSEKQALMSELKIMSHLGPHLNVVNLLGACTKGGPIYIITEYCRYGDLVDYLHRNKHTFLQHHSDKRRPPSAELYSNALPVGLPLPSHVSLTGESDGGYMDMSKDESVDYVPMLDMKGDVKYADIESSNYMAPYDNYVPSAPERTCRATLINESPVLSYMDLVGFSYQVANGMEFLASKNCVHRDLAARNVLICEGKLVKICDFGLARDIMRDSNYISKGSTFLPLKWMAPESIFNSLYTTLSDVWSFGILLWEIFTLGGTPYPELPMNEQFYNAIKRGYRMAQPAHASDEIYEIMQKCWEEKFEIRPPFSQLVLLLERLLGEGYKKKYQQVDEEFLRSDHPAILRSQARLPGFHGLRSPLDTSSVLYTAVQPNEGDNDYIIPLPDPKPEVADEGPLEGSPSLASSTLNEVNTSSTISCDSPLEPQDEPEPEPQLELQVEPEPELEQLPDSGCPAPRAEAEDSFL
T6 sequence (P08581 with tags, fused parts or gaps): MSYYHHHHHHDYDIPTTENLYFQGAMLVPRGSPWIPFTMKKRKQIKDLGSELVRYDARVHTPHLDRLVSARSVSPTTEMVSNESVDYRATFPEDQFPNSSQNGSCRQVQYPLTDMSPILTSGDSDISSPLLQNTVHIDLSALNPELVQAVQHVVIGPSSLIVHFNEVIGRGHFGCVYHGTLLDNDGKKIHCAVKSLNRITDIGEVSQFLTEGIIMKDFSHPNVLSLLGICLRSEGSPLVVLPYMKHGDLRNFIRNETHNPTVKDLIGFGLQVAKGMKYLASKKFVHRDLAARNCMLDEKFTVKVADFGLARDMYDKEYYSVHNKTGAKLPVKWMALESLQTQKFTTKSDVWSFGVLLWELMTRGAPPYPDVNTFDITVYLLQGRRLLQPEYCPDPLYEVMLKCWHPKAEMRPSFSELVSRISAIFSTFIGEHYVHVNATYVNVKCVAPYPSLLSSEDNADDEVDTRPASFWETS
T4 sequence (P10721 with tags, fused parts or gaps): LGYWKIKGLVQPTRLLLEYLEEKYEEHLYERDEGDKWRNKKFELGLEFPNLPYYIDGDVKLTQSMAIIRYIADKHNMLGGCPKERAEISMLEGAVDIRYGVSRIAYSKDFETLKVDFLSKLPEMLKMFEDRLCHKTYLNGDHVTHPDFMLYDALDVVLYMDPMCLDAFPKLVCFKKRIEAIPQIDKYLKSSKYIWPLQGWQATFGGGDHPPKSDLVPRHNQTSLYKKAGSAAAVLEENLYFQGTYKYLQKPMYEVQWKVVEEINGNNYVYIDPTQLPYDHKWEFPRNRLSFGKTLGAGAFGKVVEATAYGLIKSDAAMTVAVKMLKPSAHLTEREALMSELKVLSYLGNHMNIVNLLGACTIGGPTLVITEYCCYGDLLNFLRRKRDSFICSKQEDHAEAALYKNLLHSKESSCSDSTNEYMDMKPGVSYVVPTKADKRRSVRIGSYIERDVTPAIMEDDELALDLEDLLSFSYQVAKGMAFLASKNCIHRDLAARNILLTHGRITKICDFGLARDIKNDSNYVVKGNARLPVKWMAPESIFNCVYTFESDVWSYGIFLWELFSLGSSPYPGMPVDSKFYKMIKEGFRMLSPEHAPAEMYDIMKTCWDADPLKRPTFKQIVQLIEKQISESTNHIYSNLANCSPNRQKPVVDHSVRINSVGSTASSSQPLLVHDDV
T1 sequence (P16234 24-1089): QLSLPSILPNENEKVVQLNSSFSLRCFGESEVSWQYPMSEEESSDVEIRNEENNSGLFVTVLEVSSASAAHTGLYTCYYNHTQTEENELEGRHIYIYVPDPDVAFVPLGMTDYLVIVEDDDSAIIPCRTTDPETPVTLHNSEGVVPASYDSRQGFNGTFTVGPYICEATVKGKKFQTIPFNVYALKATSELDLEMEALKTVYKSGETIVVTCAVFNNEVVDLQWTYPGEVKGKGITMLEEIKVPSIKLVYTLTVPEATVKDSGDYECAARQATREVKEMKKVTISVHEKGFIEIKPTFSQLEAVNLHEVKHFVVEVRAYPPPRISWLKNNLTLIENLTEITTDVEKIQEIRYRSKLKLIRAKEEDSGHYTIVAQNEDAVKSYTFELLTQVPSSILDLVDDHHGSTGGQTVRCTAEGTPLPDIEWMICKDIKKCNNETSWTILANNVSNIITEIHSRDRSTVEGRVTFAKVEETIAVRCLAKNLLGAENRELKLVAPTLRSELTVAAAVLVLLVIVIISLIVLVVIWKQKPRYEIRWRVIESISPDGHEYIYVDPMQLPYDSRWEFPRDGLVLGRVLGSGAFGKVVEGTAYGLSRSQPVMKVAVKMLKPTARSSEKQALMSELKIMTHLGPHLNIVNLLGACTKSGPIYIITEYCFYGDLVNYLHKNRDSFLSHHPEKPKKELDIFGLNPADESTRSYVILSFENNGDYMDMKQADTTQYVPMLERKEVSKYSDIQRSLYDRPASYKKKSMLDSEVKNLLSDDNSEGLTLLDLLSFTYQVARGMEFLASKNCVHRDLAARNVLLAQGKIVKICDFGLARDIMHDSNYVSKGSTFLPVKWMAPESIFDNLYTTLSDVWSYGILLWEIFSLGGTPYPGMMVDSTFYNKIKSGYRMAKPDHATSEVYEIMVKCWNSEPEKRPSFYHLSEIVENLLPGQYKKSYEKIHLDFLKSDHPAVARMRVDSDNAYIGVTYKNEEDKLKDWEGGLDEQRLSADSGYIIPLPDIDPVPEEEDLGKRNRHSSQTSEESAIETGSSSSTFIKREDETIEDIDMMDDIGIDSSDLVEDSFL
KDR kinase (Seq ID No. 3), sequence (P35968 with tags, fused parts or gaps DEL940-989/E990V): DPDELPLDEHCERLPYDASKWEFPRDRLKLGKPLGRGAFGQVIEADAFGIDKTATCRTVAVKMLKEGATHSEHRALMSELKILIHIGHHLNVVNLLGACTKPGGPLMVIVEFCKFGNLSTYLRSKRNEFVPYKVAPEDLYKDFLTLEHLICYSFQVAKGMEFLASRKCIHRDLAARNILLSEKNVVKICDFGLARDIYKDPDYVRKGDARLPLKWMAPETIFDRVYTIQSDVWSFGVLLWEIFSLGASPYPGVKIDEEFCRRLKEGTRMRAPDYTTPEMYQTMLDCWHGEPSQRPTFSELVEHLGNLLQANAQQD

Compound | IC50 [1] | IC50 [2] | IC50 [4] | IC50 [6] | IC50 [7] | IC50 [8] | IC50 [10] | IC50 [3] | IC50 ([5]; Homo sapiens) | IC50 [9] | IC50 [5]
Cn1cc(-c2cc(Oc3ccc(NC(=O)C4(C(=O)Nc5ccc(F)cc5)CC4)c(F)c3)ccn2)cn1 [Example 7, N-(2-fluoro-4-(2-(1-methyl-1H-pyrazol-4-yl)pyridin-4-yloxy)phenyl)-N′-(4-fluorophenyl)cyclopropane-1,1-dicarboxamide] | < 2000 nM | < 2000 nM | < 10000 nM | < 10000 nM | < 200 nM | – | – | < 2000 nM | < 200 nM | – | –
Cc1ccc(NC(=O)C2(C(=O)Nc3ccc(Oc4ccnc(-c5cnn(C)c5)c4)cc3F)CC2)cc1 [Example 23, N-(2-fluoro-4-(2-(1-methyl-1H-pyrazol-4-yl)pyridin-4-yloxy)phenyl)-N′-p-tolylcyclopropane-1,1-dicarboxamide] | < 10000 nM | < 10000 nM | < 10000 nM | < 10000 nM | < 2000 nM | < 2000 nM | – | – | < 2000 nM | – | –
Cn1cc(-c2cc(Oc3ccc(NC(=O)C4(C(=O)Nc5ccc(F)cc5)CC4)nc3)ccn2)cn1 [Example 41, N-(4-fluorophenyl)-N′-(5-(2-(1-methyl-1,4-pyrazol-4-yl)pyridin-4-yloxy)pyridin-2-yl)cyclopropane-1,1-dicarboxamide] | < 2000 nM | < 2000 nM | < 10000 nM | < 2000 nM | < 200 nM | < 2000 nM | – | – | – | < 10000 nM | –
Cc1nn(C)cc1-c1cc(Oc2cc(F)c(NC(=O)C3(C(=O)Nc4ccc(F)cc4)CC3)cc2F)ccn1 [Example 49, N-(4-(2-(1,3-Dimethyl-1H-pyrazol-4-yl)pyridin-4-yloxy)-2,5-difluorophenyl)-N′-(4-fluorophenyl)cyclopropane-1,1-dicarboxamide] | < 10000 nM | < 2000 nM | < 10000 nM | < 200 nM | < 2000 nM | < 200 nM | – | – | < 2000 nM | – | –
Cc1cc(NC(=O)C2(C(=O)Nc3ccc(F)cc3)CC2)c(F)cc1Oc1ccnc(-c2cnn(C)c2)c1 [Example 51, N-(2-fluoro-5-methyl-4-(2-(1-methyl-1H-pyrazol-4-yl)pyridin-4-yloxy)phenyl)-N′-(4-fluorophenyl)cyclopropane-1,1-dicarboxamide] | < 2000 nM | < 2000 nM | < 2000 nM | < 200 nM | < 200 nM | < 200 nM | – | – | < 2000 nM | – | –
N-(2,5-difluoro-4-(2-(1-methyl-1H-pyrazol-4-yl)pyridin-4-yloxy)phenyl)-N-(4-fluorophenyl)cyclopropane-1,1-dicarboxamide [Example 40] | < 2000 nM | < 200 nM | < 10000 nM | < 200 nM | – | < 200 nM | – | < 2000 nM | – | – | < 200 nM

Continued, in another order:

IC50 [1] | IC50 [2] | IC50 [4] | IC50 [6] | IC50 [7] | IC50 [8] | IC50 [10] | Compound | IC50 [3] | IC50 ([5]; Homo sapiens) | IC50 [9] | IC50 [5]
< 2000 nM | < 2000 nM | < 2000 nM | < 2000 nM | < 200 nM | < 2000 nM | – | Cn1cc(-c2cc(Oc3ccc(NC(=O)C4(C(=O)Nc5ccc(Cl)cc5)CC4)c(F)c3)ccn2)cn1 [Example 22, N-(4-chlorophenyl)-N′-(2-fluoro-4-(2-(1-methyl-1H-pyrazol-4-yl)pyridin-4-yloxy)phenyl)cyclopropane-1,1-dicarboxamide] | – | < 2000 nM | – | –
< 200 nM | < 10000 nM | < 10000 nM | < 200 nM | – | < 200 nM | < 2000 nM | Cn1cc(-c2cc(Oc3cc(F)c(NC(=O)NC(=O)Cc4ccc(F)cc4)cc3F)ccn2)cn1 [Example 42, 1-(2,5-difluoro-4-(2-(1-methyl-1H-pyrazol-4-yl)pyridin-4-yloxy)phenyl)-3-(2-(4-fluorophenyl)acetyl)urea] | – | < 200 nM | – | –
< 10000 nM | < 2000 nM | < 10000 nM | < 200 nM | – | < 200 nM | < 200 nM | Cn1cc(-c2cc(Oc3cc(F)c(NC(=O)C4(C(=O)Nc5ccccc5)CC4)cc3F)ccn2)cn1 [Example 45, N-(2,5-difluoro-4-(2-(1-methyl-1H-pyrazol-4-yl)pyridin-4-yloxy)phenyl)-N′-phenylcyclopropane-1,1-dicarboxamide] | – | < 200 nM | – | –
